Where two headings read alike, the source gives them in different places.
Tests used:
[1] = Shake-flask solubility in 1-octanol and dissolution thermodynamics; type: physicochemical; conditions: for solubility higher in 1-octanol than in n-hexane: 310.2 K, ratio of molar solubilities
Description: (§1) The solubility of the investigated drugs in 1-octanol and n-hexane was determined by the shake-flask technique. To this end, the glass vials containing the solutions with the excess amount of the compound were placed in an air thermostat and stirred at a predetermined temperature for no less than 24 h (equilibrium state). After this, the suspensions were left for 5 h or more to precipitate the undissolved drug and centrifuged (Biofuge pico, Thermo Electron LED GmbH, Langenselbold, Germany) at a predetermined temperature during 20 min (10,000 rpm). The aliquots of the clear solutions were taken and examined via a spectrophotometer (Cary-50 Varian, Palo Alto, CA, USA, Software Version 3.00 (339)). The molar concentrations of the compounds in the solvents were calculated using calibration curves at the appropriate wavelength characteristic for each substance. The experimental results were reported as an average of at least three replicated experiments with an accuracy of 2–4%. In order to evaluate the thermodynamic parameters of the IPN dissolution in 1-octanol and n-hexane, the molar solubility ( S2 ) was recalculated to the mole fraction ( X2 ) by the equation:(1) X2=M2S2/S2(M1−M2)+1000ρ, where M1 and M2 are the molar masses of IPN and organic solvent, respectively, and ρ (g∙cm^−3) is the density of the pure solvents. The linear functions describing the temperature dependences of the solubility within the temperature interval from 293.2 ± 0.5 K to 313.2 ± 0.5 K for both organic solvents were derived:(2) lnX2=A+B/T
(§2) The apparent solution enthalpies ΔHsol0 were determined by the van’t Hoff equation:(3) ∂(lnX2)/∂T=ΔHsol0/RT^2
(§3) The apparent dissolution Gibbs energies ( ΔGsol ) and entropies ( ΔSsol ) were calculated at a standard temperature of 298.2 K and 310.2 K:(4) ΔGsol298.2/310.2=−RT(lnX2298.2/310.2) (5) ΔGsol298.2/310.2=ΔHsol0−TΔSsol298.2/310.2 where R is the universal gas constant.

[2] = Shake-flask distribution in the 1-octanol/buffer pH 7.4 system; type: physicochemical; conditions: for Dappoct/buff / logDappoct/buff: 310.2 K, cyclodextrin in buffer phase as in the label; for Molar concentration C2 buf/oct ∙10^3 (aqueous phase) / Molar concentration C2 oct/buf ∙10^3 (organic phase): V(oct):V(buf)= 3:3, molar concentration × 10^3
Description: (§4) Apparent distribution coefficients of the compounds were measured in two systems: 1-octanol/buffer pH 7.4 and n-hexane/buffer pH 7.4 by the shake-flask technique at 310.2 ± 0.5 K in the absence (for IPN, INZ and iNAM) and in the presence of cyclodextrins (HP-β-CD and M-β-CD) in the aqueous phase (for IPN only). The concentrations of cyclodextrins were: 0.0115 M, 0.025 M and 0.035 M. The experiments were carried out according to the literature. In brief, the following experimental procedure was performed. Aqueous buffer pH 7.4 and organic solvent (1-octanol or n-hexane) were mixed during 48 h to obtain mutually saturated phases. The stock solutions containing the drug were prepared in buffer pH 7.4 saturated with the organic solvent. Both aliquots of the aqueous stock solution and organic solvent were placed in screwed glass vials and mixed at 310.2 ± 0.5 K during 3 days. The concentrations of the stock solutions were approximately 6.0 × 10^−3 M for both systems. The volumes of the phases were 3:3 in the 1-octanol/buffer pH 7.4 systems and 6:3 and 10:3 in the n-hexane/buffer pH 7.4 systems, without and with cyclodextrins, respectively. After mixing, the equilibrium was achieved; the vials were maintained at 310.2 ± 0.5 K, and the phases were separated from each other. The drug concentrations were determined using spectrophotometer (Cary-50 Varian, Palo Alto, CA, USA, Software Version 3.00 (339)). The experiments were carried out at least four-fold with an accuracy of 2–4%. The distribution coefficients were calculated using the following equation:(6) DappOrg/buf=C2Org/buf⋅V^buf/Org/C2buf/Org⋅V^Org/buf where DappOrg/buf is the distribution coefficient calculated from the concentrations of the compounds expressed in molar scale, C2Org/buf and C2buf/Org are the molar concentrations of the drug in the mutually saturated organic solvent/buffer and buffer/organic solvent phases, respectively, and V^buf/Org and V^Org/buf are the volumes of the saturated buffer and organic solvent phases, respectively. In addition, the ΔlogD parameters were estimated taking into account the distribution coefficients both in the 1-octanol/buffer pH 7.4 and n-hexane/buffer H 7.4 systems. As Abraham et al. stated, the difference between the distribution parameters in these systems ( ΔlogD ) can be applied to assess the specific interactions including a hydrogen-bonding impact to the drug transport properties and can be calculated as follows:(7) ΔlogD=logDappoct/buf−logDapphex/buf

[3] = PermeaPad barrier, 310.2 K, cited from earlier work
[4] = design: method as in doi:10.1016/j.jct.2015.08.022; conditions: cited from earlier work
[5] = Shake-flask solubility in n-hexane and dissolution thermodynamics; type: physicochemical; conditions: T 310.2 K; value = S2 × 10^3
Description: as §1, §2, §3

[6] = ΔlogD parameter (logDapp oct/buf − logDapp hex/buf); type: physicochemical; conditions: 310.2 K; pH 7.4; cyclodextrin in buffer phase as in the label
Description: as §4, with “The volumes of the phases were 3:3 in the 1-octanol/buffer pH 7.4 systems and 6:3 and 10:3 in the n-hexane/buffer pH 7.4 systems, without and with cyclodextrins, respectively. After mixing, the equilibrium was achieved; the vials were maintained at 310.2 ± 0.5 K, and the phases were separated from each other.” left out, “The experiments were carried out at least four-fold with an accuracy of 2–4%.” left out, “In addition, the ΔlogD parameters were estimated taking into account the distribution coefficients both in the 1-octanol/buffer pH 7.4 and n-hexane/buffer H 7.4 systems.” left out

[7] = Shake-flask distribution in the n-hexane/buffer pH 7.4 system; type: physicochemical; conditions: for logDapphex/buff / Dapphex/buff ·10^4: 310.2 K; for logDapphex/buff: cyclodextrin in buffer phase as in the label; for Dapphex/buff ·10^4: value = D·10^4, cyclodextrin in buffer phase as in the label; for Molar concentration C2 buf/hex ∙10^3 (aqueous phase): V(hex):V(buf)= 6:3 without and 10:3 with cyclodextrins, molar concentration × 10^3
Description: as §4

[8] = Membrane permeability in Franz diffusion cell; type: in vitro ADME; conditions: 310.2 K
Description: Membrane permeability coefficients of the studied drugs were measured in the Franz diffusion cell of vertical type (PermeGear, Inc., Hellertown, PA, USA) with 7 mL/1 mL volumes of the donor and acceptor solutions through the reverse dialysis set up. The PermeaPad barrier (PHABIOC, Fritz-Souchon-Str.27 32339 Espelkamp Germany, www.innome.de) (0.785 cm^2 effective surface area) was mounted between the donor and acceptor chambers of the diffusion cell. The temperature was maintained at 310.2 ± 0.5 K throughout the experiment. Samples of 0.5 mL were withdrawn each 30 min from the acceptor solution and replaced with an equal amount of fresh buffer. Permeability experiments lasted over five hours in all cases. The solutions concentrations were analyzed via spectrophotometer (Spectramax 190; Molecular Devices Corporation, San Jose, CA, USA) in 96-well UV black plates (Costar) at a wavelength of 264 nm and 266 nm for IPN and INZ/iNAM, respectively. The dependences of the amount of the permeated drug over the surface area (dQ/A) on time (t) were plotted and flux (J) across the membrane was calculated by the equation:(11) J=dQ/A×dt The apparent permeability coefficients (Papp) were determined by normalizing the flux measured over the concentration of the drug in the donor compartment (C0) by the equation:(12) Papp=J/C0 Each permeability experiment was carried out in triplicate.
Similarly to the distribution, the permeability coefficients were obtained in the absence (for IPN, and iNAM) and in the presence of cyclodextrins (HP-β-CD and M-β-CD) (for IPN only) in the donor solution. The concentrations of cyclodextrins were 0.0115 M, 0.025 M and 0.035 M. The permeability coefficient for INZ through the PermeaPad barrier was determined in our previous investigation and taken in the present study for the sake of comparison.

SMILES	solubility higher in 1-octanol than in n-hexane [1]	Dappoct/buff [2]	logDappoct/buff [2]	Molar concentration C2 buf/oct ∙10^3 (aqueous phase) [2]	Molar concentration C2 oct/buf ∙10^3 (organic phase) [2]	Papp∙10^5 ([3]; pH 7.4, value = Papp × 10^5)	permeability coefficient (Papp) ([3]; without cyclodextrins)	TΔSsol298.2 ([4]; 1-octanol, 298.2 K)	ΔGsol298.2 ([4]; 1-octanol, 298.2 K)	ΔHsol298.2 ([4]; 1-octanol, 298.2 K)	Molar solubility S2 × 10^1 in 1-Octanol ([4]; T 310.2 K, value = S2 × 10^1)	Molar solubility S2 × 10^3 in n-Hexane [5]	ΔlogD [6]	logDapphex/buff [7]	Dapphex/buff ·10^4 [7]	Molar concentration C2 buf/hex ∙10^3 (aqueous phase) [7]	Molar solubility S2 × 10^1 in 1-Octanol ([1]; T 310.2 K, value = S2 × 10^1)	steady penetrate rate - flux J∙10^4 ([8]; PermeaPad barrier, pH 7.4, printed value = J × 10^4, cyclodextrin in donor solution as in the label)	Papp∙10^5 ([8]; PermeaPad barrier, pH 7.4, value = Papp × 10^5, cyclodextrin in donor solution as in the label)	Papp at 5 h ([8]; pH 7.4, PermeaPad barrier, without cyclodextrins, read-out: permeability coefficient (Papp))
NNC(=O)c1ccncc1 [INZ, isonicotinic acid hydrazide]	130 fold	0.633 ± 0.021	−0.199	5.31 ∙10^3	3.36 ∙10^3	1.44±0.08 ∙10^5 (cm∙s‐1)	14.4 ×10⁻⁶ cm/s	2.56 kcal/mol	3.32 kcal/mol	5.88 kcal/mol	^a 1.78 ± 0.04 × 10^1 (M)	1.37 ± 0.05 × 10^3 (M)	2.88	−3.083	8.254 ± 0.188 ·10^4	9.54 ∙10^3				
NC(=O)c1ccncc1 [iNAM, pyridine-4-carboxylic acid amide]	115 fold	0.446 ± 0.013	−0.351	6.33 ∙10^3	2.83 ∙10^3							1.10 ± 0.04 × 10^3 (M)	2.89	−3.241	5.742 ± 0.172 ·10^4	8.64 ∙10^3	1.26 ± 0.02 × 10^1 (M)	0.59 ∙10^4 (μM∙cm‐2∙s‐1)	0.73±0.04 ∙10^5 (cm∙s‐1)	7.3 ×10⁻⁶ cm/s
